These results are taken from patent US8871786B2, “Azaindazole amide compounds as CCR1 receptor antagonists” (Boehringer Ingelheim International GmbH, priority 2010, dated 2014).

For the experiment, the target named is T1, CCR1 (Homo sapiens, UniProt P32246).
T1 sequence (P32246 1-355): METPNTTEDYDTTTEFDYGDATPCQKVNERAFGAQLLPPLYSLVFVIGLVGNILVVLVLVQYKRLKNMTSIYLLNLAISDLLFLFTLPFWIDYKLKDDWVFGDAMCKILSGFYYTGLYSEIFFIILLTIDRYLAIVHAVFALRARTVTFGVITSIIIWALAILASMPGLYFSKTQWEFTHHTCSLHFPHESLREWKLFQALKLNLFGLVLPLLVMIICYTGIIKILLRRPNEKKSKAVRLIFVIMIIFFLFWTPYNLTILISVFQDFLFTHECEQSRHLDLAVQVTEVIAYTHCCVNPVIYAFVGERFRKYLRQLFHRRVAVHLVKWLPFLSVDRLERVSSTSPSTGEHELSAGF
The experiment in a line: Calcium flux assay in CCR1 transfected cells (block of CCR1/MIP-1α interaction). It is filed as cell-based. As to conditions: cells stably expressing recombinant CCR1 and G-alpha-16; MIP-1 alpha at EC80; mean. The procedure: Compounds are assessed for the ability to block the interaction of CCR1 and MIP-1α in a functional cellular assay measuring calcium flux in CCR1 transfected cells.
Non-adherent cells purchased from Chemicon Corporation (HTS005C), stably expressing recombinant CCR1 and G-alpha-16 are grown in RPMI 1640 medium (Mediatech 10-080-CM) supplemented with 10% FBS, 0.4 mg/mL Geneticin and penicillin/streptomycin. On the day of the assay, the cells are loaded with Calcium 4 dye (Molecular Devices R7448) with Probenecid (Invitrogen P346400) at 8E5 cells/mL for 1 hour at room temperature. After 1 hour, they are seeded in a 384-well tissue culture-treated plate at a density of 20,000 cells/well. Appropriately diluted test compound is added to the well to achieve a top concentration of 3,000 nM (diluted 4-fold with 10 doses total). The final concentration of DMSO is 1%. The buffer is HBSS (Invitrogen 14025) with 20 mM HEPES at pH 7.4. The cells incubate 30 minutes at 37 C and then 30 minutes at room temperature. The plates are transferred to the HAMAMATSU FDSS6000 where MIP-1 alpha in 1% BSA is added at the EC80 final concentration. All plates must be read within 4 hours of the start of dye-loading. Wells+/−MIP-1 alpha containing diluted DMSO instead of compound serve as the controls. Data are analyzed using Activity Base software.
(In general: Calcium flux is commonly read through the fluorescence of an indicator in the cells.)
The term IC50 denotes the midpoint of a concentration-inhibition curve. On to `Cc1cc(C)c(S(C)(=O)=O)cc1NC(=O)c1cncc2c1cnn2-c1ccc(F)cc1`, for which the IC50 worked out at 2.1 nM. For `Cc1cc(Cl)cc(C)c1NC(=O)c1cncc2c1cnn2-c1ccc(F)cc1`, the IC50 was 2.8 nM.

`Cc1noc(C)c1NC(=O)c1cncc2c1cnn2-c1ccc(F)cc1`: the IC50 is 6.9 nM. The figure for `Cc1nc(Cl)ccc1NC(=O)c1cncc2c1cnn2-c1ccc(F)cc1` is 8.8 nM; for `Cc1onc(-c2ccccc2)c1NC(=O)c1cncc2c1cnn2-c1ccc(F)cc1` it is 14 nM; for `Cc1cc(C)c(NC(=O)c2cncc3c2cnn3-c2ccc(F)cc2)c(C)c1` it is 19 nM. To `Cc1ccnc(C)c1NC(=O)c1cncc2c1cnn2-c1ccc(F)cc1` belongs 21 nM. The figure for `COC(=O)c1ccc(NC(=O)c2cncc3c2cnn3-c2ccc(F)cc2)c(C)c1` is 24 nM. As to `Cc1cc(-c2nnco2)ccc1NC(=O)c1cncc2c1cnn2-c1ccc(F)cc1`, the IC50 stood at 30 nM. `Cc1cccc(Cl)c1NC(=O)c1cncc2c1cnn2-c1ccc(F)cc1`: the IC50 is 36 nM. The figure for `Cc1cc(C(=O)N(C)C)ccc1NC(=O)c1cncc2c1cnn2-c1ccc(F)cc1` is 66 nM; for `Cn1nccc1-c1cccc(NC(=O)c2cncc3c2cnn3-c2ccc(F)cc2)c1` it is 73 nM. In the case of `Cc1ccc(NC(=O)c2cncc3c2cnn3-c2ccc(F)cc2)c(Cl)n1`, the IC50 is 82 nM.

Consider `Cn1ncc(-c2ccccc2)c1NC(=O)c1cncc2c1cnn2-c1ccc(F)cc1`, for which the IC50 was 84 nM. The figure for `CNC(=O)c1ccc(NC(=O)c2cncc3c2cnn3-c2ccc(F)cc2)c(C)c1` is 93 nM.
